For assay [1], the system named is PGE2. Briefly: TPA-induced increase of PGE2 in mouse ear. It counts as in vivo, Swiss male mice. As to conditions: for PGE2: ear homogenate, Mean ± S.E.M. (n = 10). The procedure:
(§1) A ear section of the right ear of mice were homogenized in 500 μl saline, and after centrifugation at 1,200 g for 15 min at 4° C., the PGE2 and TNF-α levels were determined by radioimmunoassay (Hoult et al., Methods Enzymol 1994) or by time-resolved fluoroimmunoassay ([…] et al., Int J. Immunopharmacol. 1995), respectively. Test compounds dissolved in the vehicle were applied topically 15 min before TPA administration.

The subject of assay [2] is dermal microvasculature, leukocyte/endothelial cells interaction. Kind of assay: Intravital microscopy of skin flap in mice (vessel diameter, rolling leukocytes). Conditions: 3 nmol topical. It counts as in vivo, C57B16 male mice. Set-up: unit not given here. On the procedure:
C57B16 male mice will be anaesthetized by intraperitoneal injection of a mixture of 10 mg/kg xylazine (MTC Pharmaceuticals, Cambridge, Ontario, Canada) and 200 mg/kg ketamine hydrochloride (Rogar/STB, London, Ontario, Canada). […] Therefore, after anaesthesia, mice will receive an intravenous injection of a fluorescent dye, rhodamine 6G (Sigma, St. Louis, Mo., USA, 0.3 mg/kg). […] Then, a midline abdominal incision will be performed, from the diaphragm, extending to the pelvic region. The skin will carefully be separated from the underlying tissue, but remained attached laterally, so the blood supply to the skin flap remained intact. The skin flap will be extended over a viewing pedestal to expose the dermal microvasculature and secured along the edges using 4.0 sutures. The exposed dermal tissues will be superfused with a bicarbonate-buffered saline pH 7.4, to avoid tissue dehydration. The microcirculation will be observed using an inverted microscope (Nikon) with a ×20 objective lens, and rhodamine 6G allows visualization and quantification of the number of rolling and adherent leukocytes, by epi-illumination at 510-560 nm, using a 590-nm emission filter. Single unbranched venules (20-40 μm in diameter) will be selected for the study. Images of the selected venule will be recorded for […], after a 15-min equilibration period and the end of this 5-min interval was considered as time 0. Leukocyte adherence will be determined upon video playback, on 100 μm vessel length (table 4). A leukocyte will be considered adherent to the endothelium if it remained stationary for 30 s or more. Leukocyte flux will be defined as the number of leukocytes per minute moving at a velocity less than that of erythrocytes, which passed a reference point in the venule. The changes in flux of rolling leukocytes will be evaluated as differences between the number of rolling leukocytes at each interval and the basal number of rolling leukocytes (table 5).
(§2) The tested compounds were applied topically dissolved in ethanol:sterile water (1:1) and applied at a final volume of 100 μl, five minutes after irritant contact dermatitis will be induced.

Assay [3] relates to irritant contact dermatitis induced by benzalkonium chloride. Kind of assay: Contact dermatitis induced by benzalkonium in mice (ear edema). Set-up: Ear edema (left ears) value: unit not given here. It counts as in vivo. The procedure:
Irritant contact dermatitis was induced by applying 5% benzalkonium chloride (100 μl per site, dissolved in olive oil:acetone, 1:5 v/v) on the dorsal aspect of the two ears. Ear diameter was measured as a parameter for edema formation, before and hourly for 6 hours after benzalkonium chloride application, using an electronic caliper. The last measurement was performed at 8-hours after dermatitis induction.
as §2
Ear edema (left ears) value for times 1 to 4 hours after irritant stimuli with benzalkonium chloride are represented in the table 3.

Assay [4] concerns TNF-α. Kind of assay: TPA-induced increase of TNF-α in mouse ear. It counts as in vivo, Swiss male mice. Conditions: for TNFalpha: ear homogenate, Mean ± S.E.M. (n = 10). The procedure:
as §1

The test system of assay [5] is TPA-induced ear oedema. Kind of assay: Inhibition of TPA-induced ear oedema after topical administration. It counts as in vivo, male Swiss mice. As to conditions: TPA 2 μg/ear, topical 20 μL of 0.39 nM solution in ethanol 15 min before TPA, ear weight change; for % inhibition 3 hours post-treatment: 3 h post TPA; for % inhibition 5 hours post-treatment: 5 h post TPA. The text has this:
The tested compounds are: • (11β,16α)-9-fluoro-11-hydroxy-16,17-[1-methylethylidene bis(oxy)]-21-[1-oxo-[4-(nitrooxymethyl)benzoxy]]pregna-1,4-diene-3,20-dione, prepared as described in example 1; • Triamcinolone acetonide that is the reference compound for the compound of example 1; • (11β)-17-[(ethoxycarbonyl)oxy]-11-hydroxy-21-[1-oxo-[4-(nitrooxy methyl)benzoxy]]pregna-1,4-diene-3,20-dione, prepared as described in example 2; • Prednicarbate that is the reference compound for the compound of example 2; The tests were performed according to the methods described by Carlson et al., Agents Actions 17:197-204, 1985, and Lucas et al., J Pharmacol Exp Ther 304:1172-1180, 2003.
Groups of 5-9 male Swiss mice of 27±5 g were used. Inflammation dermatitis was induced by applying 2 μg/ear of TPA (Tetradecanoyl Phorbol Acetate) dissolved with ethanol absolute on the surface of either the dorsal aspect of both ears (20 μL/ear).
15 min before the application of TPA, mice received topically 20 μL of a solution of test compounds (0.39 nM in ethanol) per site applied directly on the skin of the left ear and the vehicle (ethanol 100%) on right ear. Vehicle-Vehicle treated mice were included as negative control group. Compounds were tested at equimolecular doses.
Animals were sacrificed at 3 h or 5 h post TPA dose. Equal sections of both ears were punched out immediately after and weighed. The percentage of change of the weight of left ear versus the weight of right ear was calculated for each animal, and the percentage of inhibition of change in weight of treated animals versus the change in weight of non-treated animals (negative control) was measured.

[6] abbreviates: 1 μg/ear topical 15 min before TPA.
The mark [7] stands for this setting: 3 nmol topical, 1 hour after benzalkonium application.
Where [8] appears, read: 3 nmol topical, 2 hours after benzalkonium application.
Where [9] appears, read: 3 nmol topical, 3 hours after benzalkonium application.
Where [10] appears, read: 3 nmol topical, 4 hours after benzalkonium application.
The mark [11] stands for this setting: 0.48 μg/ear topical 15 min before TPA.

With `CC1(C)O[C@@H]2C[C@H]3[C@@H]4CCC5=CC(=O)C=C[C@]5(C)[C@@]4(F)[C@@H](O)C[C@]3(C)[C@]2(C(=O)CO)O1` [Triamcinolone acetonide, reference compound], in assay [1] (setting [6]), the PGE2 worked out at 43.0 ± 3.8 ng/mL. In addition, the “Area under the curve (change in flux of rolling leucocytes)” value in assay [2] was found to be 376 ± 129. For the same molecule, the “Area under the curve (change in vessel diameter)” value in assay [2] is reported as 278 ± 78. In addition, the “Ear edema (left ears) value” in assay [3] (setting [7]) is 0.037 ± 0.005; in assay [3] (setting [8]), 0.063 ± 0.010; in assay [3] (setting [9]), 0.041 ± 0.018; in assay [3] (setting [10]), 0.068 ± 0.022. This molecule returned a TNFalpha in assay [4] (setting [6]) of 158.0 ± 24.6 pg/mL. Moreover, the “% inhibition 3 hours post-treatment” value in assay [5] turned out to be 14.90%. The “% inhibition 5 hours post-treatment” value in assay [5] is listed as 12.19%.
Turning to `CCOC(=O)O[C@]1(C(=O)COC(=O)CC)CC[C@H]2[C@@H]3CCC4=CC(=O)C=C[C@]4(C)[C@H]3[C@@H](O)C[C@@]21C` [Prednicarbate, reference compound], in assay [2], the “Area under the curve (change in flux of rolling leucocytes)” value amounted to 412 ± 112 and the “Area under the curve (change in vessel diameter)” value turned out to be 282 ± 71. Further, in assay [5], the “% inhibition 3 hours post-treatment” value came to 19.58%.
Consider `CCOC(=O)O[C@]1(C(=O)COC(=O)c2ccc(CO[N+](=O)[O-])cc2)CC[C@H]2[C@@H]3CCC4=CC(=O)C=C[C@]4(C)[C@H]3[C@@H](O)C[C@@]21C` [Example 2, (11β)-17-[(ethoxycarbonyl)oxy]-11-hydroxy-21-[1-oxo-[4-(nitrooxymethyl)benzoxy]]pregna-1,4-diene-3,20-dione], for which, in assay [2], the “Area under the curve (change in flux of rolling leucocytes)” value is recorded as 300 ± 75. Further, in assay [2], the “Area under the curve (change in vessel diameter)” value came out at 175 ± 70. Also, the “Ear edema (left ears) value” is listed as 0.025 ± 0.008 in assay [3] (setting [7]), 0.028 ± 0.009 in assay [3] (setting [8]), 0.040 ± 0.009 in assay [3] (setting [9]) and 0.061 ± 0.007 in assay [3] (setting [10]). Also, the “% inhibition 3 hours post-treatment” value in assay [5] amounted to 33.26%.
In assay [1] (setting [11]), `CC1(C)O[C@@H]2C[C@H]3C4CCC5=CC(=O)C=C[C@]5(C)[C@@]4(F)[C@@H](O)C[C@]3(C)[C@]2(C(=O)COC(=O)c2ccc(CO[N+](=O)[O-])cc2)O1` (stereo partly drawn) [Example 1, (11β,16α)-9-fluoro-11-hydroxy-16,17-[1-methylethylidenebis(oxy)]-21-[1-oxo-[4-(nitrooxymethyl)benzoxy]]pregna-1,4-diene-3,20-dione] came in with a PGE2 of 53.2 ± 4.5 ng/mL. Besides, the “Reduction of PGE2 level / inflammation, result in words” value in assay [1] (low dose versus higher dose of the parent compound) is “more effective in reducing the inflammation than the correspondent parent compound”. Moreover, in assay [2], the “Area under the curve (change in flux of rolling leucocytes)” value amounted to 247 ± 35. Besides, the “Area under the curve (change in vessel diameter)” value in assay [2] was determined as 114 ± 32. In addition, the “Ear edema (left ears) value” amounted to 0.026 ± 0.005 in assay [3] (0.3 nmol topical, 1 hour after benzalkonium application); 0.035 ± 0.008 in assay [3] (0.3 nmol topical, 2 hours after benzalkonium application); 0.053 ± 0.009 in assay [3] (0.3 nmol topical, 3 hours after benzalkonium application); 0.047 ± 0.007 in assay [3] (0.3 nmol topical, 4 hours after benzalkonium application); 0.020 ± 0.006 in assay [3] (1 nmol topical, 1 hour after benzalkonium application); 0.035 ± 0.008 in assay [3] (1 nmol topical, 2 hours after benzalkonium application). Besides, the “Ear edema (left ears) value” in assay [3] (1 nmol topical, 3 hours after benzalkonium application) worked out at 0.057 ± 0.011; in assay [3] (1 nmol topical, 4 hours after benzalkonium application), 0.065 ± 0.010; in assay [3] (setting [7]), 0.018 ± 0.004; in assay [3] (setting [8]) it was 0.042 ± 0.007; in assay [3] (setting [9]) it was 0.042 ± 0.010; in assay [3] (setting [10]) it was 0.070 ± 0.007. Also, the “Inhibition of ear edema, result in words” value in assay [3] (compared with triamcinolone acetonide, mainly at earlier times) is reported as “dose-dependent effect in inhibiting ear edema with a better profile than triamcinolone acetonide”. Further, the TNFalpha in assay [4] (setting [11]) is 149.5 ± 17.8 pg/mL. Moreover, in assay [4] (versus prior art compound), the “Inhibition of TNF-α release, result in words” value is “inhibits the release of TNF-α in a higher potency than the prior art compound”. Further, in assay [5], the “% inhibition 3 hours post-treatment” value came to 22.70%. In assay [5], the “% inhibition 5 hours post-treatment” value is 21.01%.

Source of the values: patent publication US20090258849A1, “NITROOXY DERIVATIVES OF GLUCOCORTICOIDS” (Nicox S.A., priority 2005, published 2009).
